Structures are written as SMILES.

Assay [1] addresses T1, α1A-AR (Homo sapiens, UniProt P35348).
T1 construct: expressed in transfected cells; host or cells: HEK293
T1 sequence (P35348 1-466): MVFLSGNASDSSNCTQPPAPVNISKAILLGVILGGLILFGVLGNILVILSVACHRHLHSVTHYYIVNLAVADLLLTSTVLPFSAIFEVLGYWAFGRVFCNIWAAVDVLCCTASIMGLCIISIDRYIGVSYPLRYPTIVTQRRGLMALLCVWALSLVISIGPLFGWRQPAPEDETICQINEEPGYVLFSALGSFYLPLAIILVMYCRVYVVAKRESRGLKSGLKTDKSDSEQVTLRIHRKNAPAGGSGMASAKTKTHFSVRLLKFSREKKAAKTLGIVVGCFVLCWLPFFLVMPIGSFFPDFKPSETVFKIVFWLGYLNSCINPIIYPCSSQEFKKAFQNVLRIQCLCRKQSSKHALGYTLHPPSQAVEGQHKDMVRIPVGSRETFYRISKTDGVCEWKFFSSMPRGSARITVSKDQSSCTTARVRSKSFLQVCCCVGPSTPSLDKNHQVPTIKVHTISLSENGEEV
Description: Calcium mobilization (Fluo-4) antagonism of phenylephrine in HEK293 cells expressing α1A-AR/Gα16. The class given is cell-based. The note with it: for IC50: HEK293 α1A-AR/Gα16, calcium mobilization, phenylephrine 30 nM; for α1B/α1A: ratio of cell IC50 values, calcium mobilization. As to the method: (§1) HEK293 cells stably expressing α1A-AR/Gα16, α1B-AR/Gα16, α1D-AR/Gα16 were seeded in a 96-well plate, and cultured for 24 hours. Then the medium was removed and 40 μL Hank's balanced salt solution (HBSS: containing 5.4 mM KCl, 0.3 mM Na2HPO4, 0.4 mM KH2PO4, 4.2 mM NaHCO3, 1.3 mM CaCl2, 0.5 mM MgCl2, 0.6 mM MgSO4, 137 mM NaCl, 5.6 mM D-glucose, and 250 μM sulfinpyrazone, pH 7.4) containing 2 μM Fluo-4 AM was added into each well, and incubated at 37° C. for 45 min. Dye was removed and 50 μL of HBSS containing either test compound or 1% DMSO (negative control) was added. After incubation at room temperature for 10 min, Flex Station 3 microplate reader was used to read the value. At specified time points, 25 μL of agonist (phenylephrine, final concentration 30 nM) was dispensed into the well automatically using the reader and fluorescence intensity change of dye caused by intracellular calcium concentration change was detected at an excitation wavelength of 485 nm and an emission wavelength of 525 nm.
(§2) After incubation with different drugs, the reaction rate of cells to 1-AR agonist phenylephrine was calculated as follows: Reaction rate %=(D−B)/(S−B)*100%;
(§3) The reaction rate of the same drug at different doses was tested using GraphPad Prism software by non-linear regression analysis, and the dose-response curve was obtained and IC50 values was measured. Data were obtained from three separate experiments, and each experiment included three duplicate wells.

Assay [2] addresses T2, α1B-AR (Homo sapiens, UniProt P35368).
T2 construct: expressed in transfected cells; host or cells: HEK293
T2 sequence (P35368 1-520): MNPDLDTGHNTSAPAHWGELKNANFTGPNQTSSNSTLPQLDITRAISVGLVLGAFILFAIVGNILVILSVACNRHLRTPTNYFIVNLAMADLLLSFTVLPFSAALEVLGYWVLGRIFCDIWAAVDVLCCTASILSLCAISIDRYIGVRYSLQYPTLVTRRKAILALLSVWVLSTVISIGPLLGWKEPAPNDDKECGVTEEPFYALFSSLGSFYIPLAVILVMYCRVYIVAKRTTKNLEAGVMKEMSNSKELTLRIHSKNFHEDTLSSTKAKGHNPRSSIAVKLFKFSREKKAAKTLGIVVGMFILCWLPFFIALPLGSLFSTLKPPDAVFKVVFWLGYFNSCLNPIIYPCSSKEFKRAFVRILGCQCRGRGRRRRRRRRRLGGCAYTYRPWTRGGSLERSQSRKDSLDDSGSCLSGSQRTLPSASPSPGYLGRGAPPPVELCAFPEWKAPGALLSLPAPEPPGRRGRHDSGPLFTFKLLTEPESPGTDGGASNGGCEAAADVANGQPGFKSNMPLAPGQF
Description: Calcium mobilization (Fluo-4) antagonism of phenylephrine in HEK293 cells expressing α1B-AR/Gα16. The following applies: phenylephrine 30 nM. The class given is cell-based. As to the method: as §1, §2, §3

A further assay addresses T3, α1D-AR (Homo sapiens, UniProt P25100).
T3 construct: expressed in transfected cells; host or cells: HEK293
T3 sequence (P25100 1-572): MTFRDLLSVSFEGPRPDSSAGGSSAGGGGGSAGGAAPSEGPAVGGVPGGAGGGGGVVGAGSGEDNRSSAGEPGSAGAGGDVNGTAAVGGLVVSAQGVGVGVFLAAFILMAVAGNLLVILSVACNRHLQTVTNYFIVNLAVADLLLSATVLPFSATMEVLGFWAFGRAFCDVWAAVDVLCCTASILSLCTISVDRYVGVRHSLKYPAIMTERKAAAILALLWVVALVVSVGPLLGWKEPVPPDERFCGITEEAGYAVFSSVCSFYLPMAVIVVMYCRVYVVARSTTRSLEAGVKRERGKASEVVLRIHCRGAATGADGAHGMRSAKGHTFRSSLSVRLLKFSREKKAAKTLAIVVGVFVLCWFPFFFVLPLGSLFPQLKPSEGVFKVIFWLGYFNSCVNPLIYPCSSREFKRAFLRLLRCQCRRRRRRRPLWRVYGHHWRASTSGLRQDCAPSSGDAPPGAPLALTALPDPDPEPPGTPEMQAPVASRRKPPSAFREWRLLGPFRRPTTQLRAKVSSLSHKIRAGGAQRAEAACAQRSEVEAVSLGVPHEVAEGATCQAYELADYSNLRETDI
Description: Calcium mobilization (Fluo-4) antagonism of phenylephrine in HEK293 cells expressing α1D-AR/Gα16. In kind it is cell-based. The following applies: phenylephrine 30 nM. Here is the method:
as §1, §2, §3

The target of assay [3] is T2, α1B-AR. Put plainly: Tag-lite receptor binding assay, HEK293 cells expressing SNAP-α1B-AR. The source says:
(§4) Tag-lite assay was used to study receptor binding activity. Tag-lite assay was a combination of SNAP-Tag and HTRF technology, and was used to analyze surface receptors on live cell. SNAPs were small tag fusion proteins which could irreversibly, specifically and covalently bind to substrates via benzylmethyl, and the substrates were benzylmethyl guanine and benzylmethyl cytosine. Substrates and various dyes formed derivatives, and through covalent reaction, the dye was labeled onto SANPs. Plasmid was constructed using pSNAP and α1-AR encoding gene. After transfection into cells, N-terminal fusion protein of SNAP and α1-AR was expressed. The substrate and HTRF fluorescent dye (donor compound Lumi4-Tb) formed a derivative which reacted with SANP-α1-AR fusion protein so that Tb was labeled onto α1-AR. After adding acceptor fluorescent dye-labeled ligand, the receptor and ligand binding experiment was performed.
(§5) HEK293 cells stably expressing SNAP-α1A-AR, SNAP-α1B-AR, SNAP-α1D-AR were seeded in 3 cm dishes, and cultured for 24 hours. 100 nM Tag-lite SNAP Lumi4Tb was added and incubated for 1 h in an incubator. Cells were detached and washed with a labeling buffer for 4 times, and then was added into a 384-well plate in a volume of 10 μL per well. […] After incubation at room temperature for 1 hour, fluorescence intensity changes caused by cell receptor and ligand changes were detected using 665 nm (acceptor) and 620 nm (donor) at same time.
(§6) After incubation with different drugs, the reaction rate of cells to 1-AR fluorescein-labeled known ligand was calculated as follows: Reaction rate %=(D−B)/(S−B)*100%
(§7) The reaction rate of the same drug at different doses was tested using GraphPad Prism software by non-linear regression analysis, and the dose-response curve was obtained and Ki values was measured. Data were obtained from three separate experiments, and each experiment includes three duplicate wells.

Another assay concerns urethra smooth muscle. Put plainly: In vitro urethra smooth muscle experiment (norepinephrine-induced contraction). The arrangement: species or system Wistar rats; Urethra inhibition rate (%): concentration or dose not given beside the values. The following applies: for IC50: isolated rat prostatic urethra, norepinephrine 3×10^−4 mol/L; for Urethra inhibition rate (%): isolated rat urethra, norepinephrine-induced contraction; for Aorta/Urethra: selectivity ratio of IC50 values, isolated rat tissues. As to the method: Healthy male Wistar rats were hit head to cause faint. The abdominal cavity and the pubic symphysis was quickly cut so as to quickly remove the prostatic urethra, which was immediately placed into a dish filled with 4° C. Kerbs-Henseleit solution (K-H solution). The surrounding tissue were carefully separated, and muscle strips about 3-5 mm were obtained, and the lower end was fixed onto a 20 mL of thermostatic bath and the upper end was connected onto a pressure transducer. Nutrient liquid was K-H solution, and carbogen (95% oxygen and 5% carbon dioxide) was aerated, and the bath temperature was 37° C., and resting tension applied was 0.5 g. The nutrient liquid was replaced every 6-8 mins. Until baseline stabilized, norepinephrine was added with a final concentration of 3×10^−4 mol/L in bath tube. When the contraction curve reached the highest point, it was rinsed immediately to recover to baseline levels. When baseline was stabilized, test drug with different concentrations was added respectively, and incubated 3-5 mins. 60 μL 1×10^−1 M norepinephrine was added with a final concentration of 3×10^−4 mol/L in bath tube, and the contraction curve was recorded.

Assay [4] has as its system vascular smooth muscle (thoracic aorta). Put plainly: In vitro vascular smooth muscle experiment (norepinephrine-induced contraction of thoracic aorta rings). The arrangement: species or system Wistar rats. The following applies: isolated rat thoracic aorta rings, norepinephrine 10^−7 mol/L. Here is the method: Healthy male Wistar rats were hit head to cause faint. The abdominal cavity was quickly cut, and the thoracic aorta was taken out. The attached tissue was separated and cut into 2-3 mm vascular rings. The experiment was carried out in the same manner as in urethral smooth muscle experiment. The resting tension applied was 1 g, and when baseline was stabilized, norepinephrine was added with a final concentration of 10^−7 mol/L in bath tube. When the contraction curve reached the highest point, rinse was performed immediately to recover to baseline levels. When baseline was stabilized, test drug with different concentrations was added respectively, and incubated 3-5 mins. 20 μL 1×10^−4 M norepinephrine was added with a final concentration of 10^−7 mol/L in bath tube, and contraction curve was recorded.

For assay [5], the target named is T1, α1A-AR. Put plainly: Tag-lite receptor binding assay, HEK293 cells expressing SNAP-α1A-AR.
Excerpt: as §4, §5, §6, §7

`COc1cc2c(cc1OC)[C@@H]1Cc3cc(C)cc(C)c3CN1CC2` [DC037011]: the concentration for half-maximal inhibition (IC50) at α1A-AR [1] worked out at 532 nM; on α1B-AR [2], 34300 nM; at α1D-AR, 2640 nM. In addition, the α1B/α1A on α1A-AR [1] worked out at 64.4.
The matching figures for `COc1cc2c(cc1OC)C1Cc3cc4c(cc3CN1CC2)OCO4` (centres unmarked) [DC037008]: 552 nM, 68800 nM, 2120 nM and 125.
The matching figures for `COc1ccc(OC)c2c1C[C@H]1c3cc4c(cc3CCN1C2)OCO4` [DC037007]: 969 nM, 13000 nM, 75.8 nM and 13.4.
The matching figures for `COc1cc2c(cc1OC)CN1CCc3cc(OC)c(OC)cc3C1C2` (centres unmarked) [DC037001]: 123 nM, 174 nM, 8710 nM and 1.4.
Take `COc1cc2c(cc1OCc1ccccc1)CN1CCc3cc4c(cc3[C@@H]1C2)OCO4` [DC037014]: the IC50 was 303 nM on α1A-AR [1], 35900 nM on α1B-AR [2] and 1340 nM at α1D-AR. For the same compound, at α1A-AR [1], the α1B/α1A amounted to 118.5.
The matching figures for `COc1cc2c(cc1OC)[C@@H]1Cc3cc4c(cc3CN1CC2)OCO4` [DC037005]: 160 nM, 1650 nM, 2950 nM and 10.3.
In the case of `COc1cc2c(cc1O)[C@@H]1Cc3cc4c(cc3CN1CC2)OCO4` [DC037013], the IC50 turned out to be 268 nM on α1A-AR [1], 4310 nM on α1B-AR [2] and 263 nM on α1D-AR. Besides, the α1B/α1A at α1A-AR [1] was found to be 16.1.
On to `CCOc1ccccc1OCCN[C@H](C)Cc1ccc(OC)c(S(N)(=O)=O)c1` [Tamsulosin, reference compound], for which the IC50 on α1B-AR [2] turned out to be 3.08 nM; at α1D-AR it was 0.18 nM; on α1B-AR [3] it was 0.16 nM; in the assay with urethra smooth muscle it was 0.47 nM; in assay [4] it was 0.25 nM. The “Urethra inhibition rate (%)” value in the assay with urethra smooth muscle is recorded as 82%. The Aorta/Urethra in the assay on urethra smooth muscle stood at 0.53.
As to `COc1cc2c(cc1OC)[C@@H](C)N1CCc3cc(OC)c(OC)cc3[C@@H]1C2` [DC037002], the IC50 at α1A-AR [1] is 502 nM; on α1B-AR [2], 17200 nM; at α1D-AR it was 2520 nM. Further, on α1A-AR [1], the α1B/α1A was 34.2.
For the compound `COc1cc2c(c(OC)c1OC)CN1CCc3cc4c(cc3[C@@H]1C2)OCO4` [DC037010], the results for the half-maximal inhibitory concentration (IC50) on α1A-AR [1], at α1B-AR [2] and at α1D-AR were 238 nM, 1200 nM and 2560 nM, respectively. Further, on α1A-AR [1], the α1B/α1A is on record as 5.0.
The matching figures for `COc1cc2c(cc1OC)CN1CCc3cc(OC)c(OC)cc3[C@@H]1C2` [DC037003]: 91.3 nM, 249000 nM, 2480 nM and 2731.
`COc1ccc2c(c1)CCN1Cc3cc(OC)c(OC)cc3C[C@@H]21` [DC037004]: the IC50 on α1A-AR [1] worked out at 93.9 nM; at α1B-AR [2], 189 nM; on α1D-AR, 422 nM. The α1B/α1A at α1A-AR [1] was 2.0.
On to `COc1cc2c(cc1OCC(F)F)C[C@H]1c3cc4c(cc3CCN1C2)OCO4` [DC037018], for which the IC50 amounted to 0.95 nM at α1A-AR [5] (Tag-lite binding, HEK293 SNAP-α1A-AR); 48.6 nM at α1B-AR [3]; 147 nM in the assay on urethra smooth muscle; 2210 nM in assay [4]. Moreover, the α1B/α1A on α1A-AR [5] (ratio of Tag-lite binding values) is recorded as 51.2. Moreover, the “Urethra inhibition rate (%)” value with urethra smooth muscle amounted to 61%. In addition, in the assay on urethra smooth muscle, the Aorta/Urethra is recorded as 61.
`COc1cc2c(cc1OC)CN1CCc3cc4c(cc3C1C2)OCO4` (centres unmarked) [DC037012]: the values for the IC50 at α1A-AR [1], on α1B-AR [2] and on α1D-AR were 257 nM, 7520 nM and 242 nM, respectively. On α1A-AR [1], the α1B/α1A is 29.2.

The values are drawn from patent US9737517B2, “Pharmaceutical use of hexahydro-dibenzo[a,g]quinolizine compounds” (SHANGHAI INSTITUTE OF MATERIA MEDICA, CHINESE ACADEMY OF …, priority 2013, dated 2017).
